Measurements taken from patent US6506607B1, “Methods and compositions for the identification and assessment of prostate cancer therapies and the diagnosis of prostate cancer” (Millennium Pharmaceuticals, Inc., priority 1997, dated 2003).

System: LNCaP cells
Test: Gene expression in bicalutamide-treated vs untreated LNCaP cells (subtraction library, Gene Expression Micro-Array)
Assay type: cell-based
Settings: 25 hours

## CC(O)(CS(=O)(=O)c1ccc(F)cc1)C(=O)Nc1ccc(C#N)c(C(F)(F)F)c1 (centres unmarked) [bicalutamide, Bicalutamide]
SEQ ID NO 145, 100 nM bicalutamide
  FOLD INCREASE IN mRNA: HU-K4 {470677}: 3.6 fold
SEQ ID NO 146, 100 nM bicalutamide
  FOLD INCREASE IN mRNA: ESTs {126530}: 3.5 fold
SEQ ID NO 147, 100 nM bicalutamide
  FOLD INCREASE IN mRNA: ESTs {429327}: 3.5 fold
SEQ ID NO 148, 100 nM bicalutamide
  FOLD INCREASE IN mRNA: Vascular endothelial growth factor (VEGF (165)) {488697}: 3.2 fold
SEQ ID NO 149, 100 nM bicalutamide
  FOLD INCREASE IN mRNA: ESTs {50914}: 3.1 fold
SEQ ID NO 150, 100 nM bicalutamide
  FOLD INCREASE IN mRNA: ESTs {279847}: 3.1 fold
SEQ ID NO 151, 100 nM bicalutamide
  FOLD INCREASE IN mRNA: ESTs {361548}: 3.1 fold
SEQ ID NO 152, 100 nM bicalutamide
  FOLD INCREASE IN mRNA: ESTs {364730}: 3.1 fold
SEQ ID NO 153, 100 nM bicalutamide
  FOLD INCREASE IN mRNA: ESTs {470212}: 3.1 fold
SEQ ID NO 154, 100 nM bicalutamide
  FOLD INCREASE IN mRNA: ESTs {471210}: 3.1 fold
SEQ ID NO 155, 100 nM bicalutamide
  FOLD INCREASE IN mRNA: ESTs {289300}: 3 fold
SEQ ID NO 156, 100 nM bicalutamide
  FOLD INCREASE IN mRNA: ESTs {427725}: 3 fold
SEQ ID NO 157, 100 nM bicalutamide
  FOLD INCREASE IN mRNA: ESTs {428217}: 2.9 fold
SEQ ID NO 158, 100 nM bicalutamide
  FOLD INCREASE IN mRNA: rfp transforming protein {485268}: 2.8 fold
SEQ ID NO 159, 100 nM bicalutamide
  FOLD INCREASE IN mRNA: ESTs {487420}: 2.8 fold
SEQ ID NO 160, 100 nM bicalutamide
  FOLD INCREASE IN mRNA: 60S RIBOSOMAL PROTEIN L18A {509699}: 2.8 fold
SEQ ID NO 161, 100 nM bicalutamide
  FOLD INCREASE IN mRNA: ESTs {31943}: 2.7 fold
SEQ ID NO 162, 100 nM bicalutamide
  FOLD INCREASE IN mRNA: ESTs {376271}: 2.7 fold
SEQ ID NO 163, 100 nM bicalutamide
  FOLD INCREASE IN mRNA: ESTs {469642}: 2.7 fold
SEQ ID NO 164, 100 nM bicalutamide
  FOLD INCREASE IN mRNA: ESTs {471826}: 2.7 fold
SEQ ID NO 165, 100 nM bicalutamide
  FOLD INCREASE IN mRNA: KIAA0262 {485008}: 2.7 fold
SEQ ID NO 166, 100 nM bicalutamide
  FOLD INCREASE IN mRNA: ESTs {292082}: 2.6 fold
SEQ ID NO 167, 100 nM bicalutamide
  FOLD INCREASE IN mRNA: ESTs {365557}: 2.6 fold
SEQ ID NO 168, 100 nM bicalutamide
  FOLD INCREASE IN mRNA: Immunogloblin light chain (lambda) {119218}: 2.5 fold
SEQ ID NO 169, 100 nM bicalutamide
  FOLD INCREASE IN mRNA: ELP-1 {147979}: 2.5 fold
SEQ ID NO 170, 100 nM bicalutamide
  FOLD INCREASE IN mRNA: TRAMP protein {149355}: 2.5 fold
SEQ ID NO 171, 100 nM bicalutamide
  FOLD INCREASE IN mRNA: ESTs {294078}: 2.5 fold
SEQ ID NO 172, 100 nM bicalutamide
  FOLD INCREASE IN mRNA: ESTs {291005}: 2.5 fold
SEQ ID NO 173, 100 nM bicalutamide
  FOLD INCREASE IN mRNA: ESTs {365907}: 2.5 fold
SEQ ID NO 174, 100 nM bicalutamide
  FOLD INCREASE IN mRNA: ESTs {427801}: 2.5 fold
SEQ ID NO 175, 100 nM bicalutamide
  FOLD INCREASE IN mRNA: ESTs {469515}: 2.5 fold
SEQ ID NO 176, 100 nM bicalutamide
  FOLD INCREASE IN mRNA: Tral mRNA for human homologue of murine tumor rejection antigen gp96 {509486}: 2.5 fold
SEQ ID NO 177, 100 nM bicalutamide
  FOLD INCREASE IN mRNA: Biotin-[propionyl-CoA-carboxylase (ATP-hydrolysing)] {176590}: 2.4 fold
SEQ ID NO 178, 100 nM bicalutamide
  FOLD INCREASE IN mRNA: Tral mRNA for human homologue of murine tumor rejection antigen gp96 {242829}: 2.4 fold
SEQ ID NO 179, 100 nM bicalutamide
  FOLD INCREASE IN mRNA: Cancellous bone osteoblast mRNA for GS3786 {486005}: 2.4 fold
SEQ ID NO 180, 100 nM bicalutamide
  FOLD INCREASE IN mRNA: ESTs {509583}: 2.4 fold
SEQ ID NO 181, 100 nM bicalutamide
  FOLD INCREASE IN mRNA: ESTs {44551}: 2.3 fold
SEQ ID NO 182, 100 nM bicalutamide
  FOLD INCREASE IN mRNA: ESTs {245853}: 2.3 fold
SEQ ID NO 183, 100 nM bicalutamide
  FOLD INCREASE IN mRNA: ESTs {306075}: 2.3 fold
SEQ ID NO 184, 100 nM bicalutamide
  FOLD INCREASE IN mRNA: ESTs {322143}: 2.3 fold
SEQ ID NO 185, 100 nM bicalutamide
  FOLD INCREASE IN mRNA: ESTs {322749}: 2.3 fold
SEQ ID NO 186, 100 nM bicalutamide
  FOLD INCREASE IN mRNA: ESTs {359877}: 2.3 fold
SEQ ID NO 187, 100 nM bicalutamide
  FOLD INCREASE IN mRNA: ESTs {360446}: 2.3 fold
SEQ ID NO 188, 100 nM bicalutamide
  FOLD INCREASE IN mRNA: ESTs {360789}: 2.3 fold
SEQ ID NO 189, 100 nM bicalutamide
  FOLD INCREASE IN mRNA: Protein tyrosine kinase t-Rorl {418257}: 2.3 fold
SEQ ID NO 190, 100 nM bicalutamide
  FOLD INCREASE IN mRNA: ESTs {486712}: 2.3 fold
SEQ ID NO 191, 100 nM bicalutamide
  FOLD INCREASE IN mRNA: ESTs {489106}: 2.3 fold
